Measurements as given in patent US7893299B2, “Interleukin-1 and tumor necrosis factor-αmodulators; syntheses of such modulators and methods of using such modulators” (Nereus Pharmaceuticals, Inc., priority 2005, dated 2011).
Read-outs that look alike come from different tables or passages of the source.

Assays:
[1] = test system: IκBα phosphorylation; assay: phosphorylation of IκBα induced by Toll-like receptor ligands in RPMI 8226 cells; format: cell-based; settings: 13 μM
Experimental: One ml/well of 2×10^6/ml RPMI 8226 cells (#CCL-155C, American Type Culture Collection) were seeded in 6-well plate in LGM-3 medium and cultured for overnight at 37° C., 5% CO2 and 95% humidified air. Formula (IIB-A1) was added to RPMI 8226 cells at the final concentration of 13 μM for 1 hr. DMSO was used as a control. Cells were then stimulated with 50 ng/ml LPS, 2 μg/ml Lipoteichoic acid (LTA) and CpG DNA for various length of time. At the end of each period of stimulation, cells were harvested by centrifugation and cell pellets were washed once in ice-cold 1× Dulbecco's Phosphate buffered Saline (DPBS). To prepare samples for SDS-PAGE, cells were lysed in RIPA buffer (50 mM Tris-HCl, pH7.4, 0.9% NaCl, 1% Triton X-100, 0.25% Na-deoxycholate, 1 mM EDTA, 2 mM Na3VO4 and 1× protease inhibitors cocktail) for 15 min on ice. Cell lysates were cleared by centrifugation at 14,000 rpm, 4° C. for 10 min. Protein concentrations of cell lysates were determined by BCA protein assay kit prior to SDS-PAGE. Equal amount of proteins from various cell lysates were resolved on 10% NuPage MES precast gels and transferred to nitrocellulose membranes according to the manufacturer's instructions. […]

[2] = test system: IL-8 production; assay: LPS-stimulated IL-8 levels in RPMI 8226 cells (ELISA); format: cell-based, human; settings: 20 μM to 0.16 μM
Experimental: Ninety μl of 2.8×10^5/ml and 0.5 ml of 5×10^5/ml RMPI 8226 cells (#CCL-155C, American Type Culture Collection) were seeded in 96-well and 6-well plate in LGM-3 medium, respectively. Cells were cultured overnight at 37° C., 5% CO2 and 95% humidified air. 8-point serial dilution of TTL3 or formula (IIB-A1) was added to cells for 1 hr at the final concentration ranging from 20 μM to 0.16 μM. DMSO was used as control. After 1 hr, 50 ng/ml of LPS diluted in LGM-3 medium from 1 mg/ml stock solution was added to stimulate the cells for additional 10 hr. Supernatants were collected and IL-8 and IL-10 levels were analyzed by using the human IL-8 and IL-10 cytoset ELISA kits.

[3] = test system: NF-κB DNA binding activity; assay: NF-κB DNA binding activity, EMSA, RPMI 8226; format: cell-based; settings: LPS
[4] = test system: bortezomib-resistant DHL-4 lymphoma cells; assay: viability of bortezomib-resistant DHL-4 lymphoma cells; format: cell-based; settings: 48 hours; 0, 12, 25 and 50 uM
Experimental: Two cell-based assays were treated with NPI-1387 for 48 hours at concentrations of 0, 12, 25 and 50 uM. Both Bcl-2-overexpressing MM.1S cells and bortezomib-resistant DHL-4 lymphoma cells were used and the percentage of viable cells of each was recorded. […] (See FIG. 67).

[5] = test system: HT-29 (Colon); assay: 48 hr cytotoxicity, HT-29; format: cell-based, human
Experimental: Human colon adenocarcinoma HT-29 (ATCC# HTB-38), prostate adenocarcinoma PC-3 (ATCC# CRL-1435), breast adenocarcinoma MDA-MB231 (ATCC# HTB-26), Multiple Myeloma RPMI 8226 (ATCC# CCL-155) and U266 (ATCC # TIB-196) cell lines and human normal fibroblast CCD-27sk (ATCC# CRL-1475) were all purchased from ATCC (Manassas, Va.). The cells were maintained in their respective ATCC recommended culture media at 37° C., 5% CO2 and 95% humidified air.
The cytotoxicity assays were performed by seeding individual cell lines at appropriate density in the 96 well flat-bottomed plates and allowed to attach for 24 hours at 37° C., 5% CO2 and 95% humidified air (RPMI 8226 and U266 cells were plated in 96 well plates on the day of compound addition). Serially diluted NPI-1387 was added in triplicate to cells at concentrations ranging from 160 nM to 20 μM. Final concentration of 0.25% (v/v) DMSO was used as the vehicle control. Cell viability was assessed 48 hours later by measuring the fluorescence of the reduction product of Resazurin by a Fusion microplate fluorometer (PerkinElmer) with λex=535 nm and λem=590 nm filters. The IC50 values (the drug concentration at which 50% of the maximal observed cytotoxicity is established) were calculated in XLFit 3.0 or XLFit 4.0 (ID Business Solutions Ltd) using a sigmoidal dose response model.

[6] = test system: MM cells; assay: MM cell death after 48 hours on co-administration with other drugs; format: cell-based
Experimental: In Vitro assays measuring the percentage of MM cell death after 48 hours were carried out with bortezomib and dexamethasone, each in concert with NPI-1387. […] (See FIGS. 70 and 71).

[7] = test system: cells obtained from Bortezomib-refractory MM patient; assay: viability of purified patient MM cells; format: cell-based; settings: in vitro
Source text: Besides nuclear condensation, NF-KB inhibitor triggered proteolytic cleavage of poly (ADP ribose) polymerase (PARP), a hallmark of apoptosis.

[8] = test system: Panc1 cells; assay: apoptosis by PI FACS analysis, Panc1; format: cell-based, human; settings: combination treatment with Salinosporamide A, increased from 4%
Source text: Novel diterpene inhibitors of NFκB derived from acanthoic acid (NPI-1342 (Formula IIB-a1) and NPI-1387; compound 24 under scheme 4 above) show measurable effects in human pancreatic cancer cell lines in vitro. Seven of the nine cell lines were moderately sensitive to apoptosis induced by death receptor ligand Tumor Necrosis Factor (TNF) related apoptosis-inducing ligand (TRAIL). […] Specific silencing of NFkB/p65 expression mimicked these effects. Furthermore, combination treatment of Salinosporamide A and either NPI-1342 or NPI-1387 led to induction of apoptosis as measured by PI FACS analysis. Specifically, levels of DNA fragmentation increased from 4% to 50% in HS766T cells and from 4% to 52% in Panc1 cells. The inhibitory effects of NPI-1342, NPI-1387 on NFκB were evaluated by Electromobility Shift Assays and confirmed by confocal microscopy.

Structure (SMILES) | phosphorylation of IκBα induced by Toll-like receptor ligands (LTA, CpG DNA) [1] | phosphorylation of IκBα induced by Toll-like receptor ligands (LTA, CpG DNA) ([1]; listed as formula (IIB-A1)) | LPS-induced IL-8 production [2] | LPS-induced IL-8 production ([2]; listed as formula (IIB-A1)) | NF-κB DNA binding activity [3] | percentage of viable cells [4] | IC50 [5] [µM] | IC50 ([5]; Homo sapiens, HT-29, 48 h) [µM] | percentage of MM cell death, co-administration with bortezomib [6] | percentage of MM cell death, co-administration with dexamethasone [6] | viability of cells from Bortezomib-refractory MM patient [7] | levels of DNA fragmentation [8] [%]
C=C[C@@]1(C)CCC=C2[C@H]1CC[C@@H]1[C@](C)(C(=O)NC3CCCCC3)CCC[C@@]21C [Formula (IIB-A1), N-Cyclohexylamide Derivative of TTL] | inhibits the phosphorylation of IκBα induced by Toll-like receptor ligands | inhibits the phosphorylation of IκBα induced by LTA and CpG DNA | reduces LPS-induced IL-8 and IL-10 production in a dose-dependent manner | inhibits the LPS-induced IL-8 and IL-10 production |  |  |  |  |  |  |  | 
C=CC(=O)C1(C)CCCC2(C)C3=CCC(C)(C=C)C[C@@H]3CC[C@H]12 (stereo in doubt) [NPI-1387, 1-[(1S,4aS,7R)-1,4a,7-Trimethyl-7-vinyl-1,2,3,4,4a,6,7,8,8a,9,10,10a-dodecahydro-1-phenanthrenyl]-2-propen-1-one] |  |  |  |  | inhibits the DNA binding activity of NF-κB in a dose-dependent manner | marked decrease in the percentage of viable cells | 13 ± 6 | 14 ± 6 | additive effects in increasing the percentage of MM cell death | additive effects in increasing the percentage of MM cell death | decreases the viability | 52
